Experimental findings from PMC3774728, “Identification of the Plant Compound Geraniin as a Novel Hsp90 Inhibitor” (PLoS ONE, 2013) are described below.

Read-outs that look alike come from different tables or passages of the source.

The target in one data set is T1, recombinant Hsp90α (Homo sapiens, UniProt P07900).
T1 construct: purchased Assay Designs (Ann Arbor, MI, USA)
The data set can be described thus: Surface plasmon resonance binding to immobilized Hsp90α. How it is done: SPR analyses were carried out according to our previously published procedures, [23]. Briefly, SPR analyses were performed using a Biacore 3000 optical biosensor equipped with research−grade CM5 sensor chips (GE Healthcare). Using this platform, two separate recombinant Hsp90α surfaces, a BSA surface and one unmodified reference surface were prepared for simultaneous analyses. Proteins (100 µg mL^−1 in 10 mM CH3COONa, pH 5.0) were immobilized on individual sensor chip surfaces at a flow rate of 5 µL min^−1 using standard amine−coupling protocols to obtain densities of 8–12 kRU. Polyphenols, as well as 17-AAG and hardwickiic acid (HA), were dissolved in 100% DMSO to obtain 4 mM solutions, and diluted 1∶200 (v/v) in PBS (10 mM NaH2PO4, 150 mM NaCl, pH 7.4) to a final DMSO concentration of 0.5%. […] Binding experiments were performed at 25°C, using a flow rate of 50 µL min^−1, with 60 s monitoring of association and 300 s monitoring of dissociation. Simple interactions were suitably fitted to a single−site bimolecular interaction model (A+B = AB), yielding a single K D. Sensorgram elaborations were performed using the BIAevaluation software provided by GE Healthcare.
Putative interactions of different plant-derived phenolic compounds with Hsp90α were evaluated by a SPR-based approach.
In general terms: In SPR one partner is held on a chip, and binding of the other changes the refractive index at the surface.

Data set [1] has as its system HeLa cells. The data set can be described thus: Cell cycle and hypodiploidy by flow cytometry (PI), HeLa. The data set is classed as cell-based, human. The conditions noted are these: 24 h, geraniin 5 µM, 17-AAG 0.2 µM. As for the experimental part:
(§1) Cell DNA content was measured by propidium iodide (PI) incorporation into permeabilized cells, as described by Nicoletti et al.. Briefly, the cells were harvested after geraniin or 17-AAG treatments were washed with cold PBS and incubated with a PI solution (0.1% sodium citrate, 0.1% Triton X-100 and 50 µg mL^−1 of prodium iodide, Sigma-Aldrich, 10 µg/ml Rnase A) for 30 min at room temperature. Data from 10.000 events per sample were collected by a FACScalibur flow cytometer (Becton Dickinson, San José, CA) and cellular debris was excluded from analysis by raising the forward scatter threshold. The percentage of cells in the sub G0/G1 phase, apoptotic fraction, was quantified using CellQuest software (Becton Dickinson). The distribution of cells in G0/G1, S, G2/M phases was determined using ModFit LT cell cycle analysis software (Becton Dickinson). Results were expressed as a mean ± SD of three experiments performed in triplicate.
(§2) Figure 6 Effects of geraniin and 17-AAG on cell cycle progression. Percentage of cell cycle stages was analyzed by flow cytometry, (A) PI-stained viable Jurkat cells treated with DMSO, 0.7 µM geraniin or 10 µM 17-AAG for 24 h.
(In general: In flow cytometry, cells or beads pass a laser one at a time.)

Data set [2] concerns PBMC (human Peripheral Blood Mononuclear Cells). Kind of data set: Cytotoxicity in PHA-stimulated proliferating PBMC. Type of data set: cell-based. The following applies: 24 h, trypan blue, only at high doses. How it is done:
To ensure logarithmic growth, cells were subcultured every two days. As control cells, human peripheral blood mononuclear cells (PBMC) were isolated from buffy coats of healthy donors (kindly provided by the Blood Center of the Hospital of Battipaglia, Salerno, Italy) by using standard Ficoll−Hypaque gradients. […] Proliferation of PBMC was induced by phytohemagglutinin (PHA) (10 µg mL^−1). […] Stock solutions of geraniin (50 mM in DMSO) and 17-AAG (10 mM in DMSO) were stored a −20°C in the dark and diluted just before addition to the sterile culture medium. In all the experiments, the final concentration of DMSO was 0.10% (v/v).
The number of viable cells was determined by using a [3–4,5-dimethyldiazol-2-yl]-2,5-diphenyl tetrazolium bromide (MTT, Sigma-Aldrich) conversion assay, according to the method described by Mosmann. Briefly, following the treatment, 25 µL of MTT (5 mg/mL in PBS) was added and the cells were incubated for additional 3 h at 37°C. Thereafter, cells were lysed and suspended with 100 µL of buffer containing 50% (v/v) N,N-dimethylformamide, 20% SDS (pH 4.5). The absorbance was measured with a microplate reader (Titertek multiskan MCC7340, LabSystems, Vienna, VA, USA) equipped with a 620 nm filter. Cell population growth inhibition was tested by cytometric counting (trypan blu exclusion).

The test system of data set [3] is HeLa cells. The data set can be described thus: MTT cell viability, HeLa. The data set is classed as cell-based, human. The conditions noted are these: 24 h. As for the experimental part:
(§3) To ensure logarithmic growth, cells were subcultured every two days. As control cells, human peripheral blood mononuclear cells (PBMC) were isolated from buffy coats of healthy donors (kindly provided by the Blood Center of the Hospital of Battipaglia, Salerno, Italy) by using standard Ficoll−Hypaque gradients. […] Proliferation of PBMC was induced by phytohemagglutinin (PHA) (10 µg mL^−1). Tumor and PBMC cells were treated with different concentrations of geraniin or 17-AAG to evaluate their cytotoxic effects. Stock solutions of geraniin (50 mM in DMSO) and 17-AAG (10 mM in DMSO) were stored a −20°C in the dark and diluted just before addition to the sterile culture medium. In all the experiments, the final concentration of DMSO was 0.10% (v/v).
(§4) Jurkat (2×10^4/well) and HeLa (5000/well) cells were seeded in triplicate in 96 well−plates and incubated for 24 h in the absence or presence of different concentrations of geraniin (between 0,5 µM to 50 µM) or 17-AAG (between 0,5 nM to 10 µM).
(§5) The number of viable cells was determined by using a [3–4,5-dimethyldiazol-2-yl]-2,5-diphenyl tetrazolium bromide (MTT, Sigma-Aldrich) conversion assay, according to the method described by Mosmann. […] The absorbance was measured with a microplate reader (Titertek multiskan MCC7340, LabSystems, Vienna, VA, USA) equipped with a 620 nm filter. […]

For data set [4], the system named is Jurkat cells. The data set can be described thus: MTT cell viability, Jurkat. Type of data set: cell-based, human. The following applies: 24 h. As for the experimental part:
as §3, §4, §5

For data set [5], the system named is Jurkat cells. The data set can be described thus: Cell cycle and hypodiploidy by flow cytometry (PI), Jurkat. Type of data set: cell-based, human. The following applies: 24 h, geraniin 0.7 µM, 17-AAG 10 µM. As for the experimental part: as §1, §2
For data set [6], the system named is PHA-stimulated proliferating PBMC. The data set can be described thus: Hypodiploidy/necrosis by flow cytometry, PHA-stimulated PBMC. The data set is classed as cell-based, human. The conditions noted are these: untreated cells 1.5±0.8%. As for the experimental part: Jurkat and HeLa (epithelial carcinoma) cells, obtained from Cell Bank in GMP-IST (Genova, Italy) were maintained in RPMI 1640 medium or Dulbecco’s modified Eagle medium (DMEM), respectively, supplemented with 10% (v/v) FBS, 2 mM L−glutamine and antibiotics (100 U mL^−1 penicillin, 100 µg mL^−1 streptomycin) purchased from Invitrogen (Carslbad, CA, USA), at 37°C in humidified atmosphere with 5% CO2. To ensure logarithmic growth, cells were subcultured every two days. As control cells, human peripheral blood mononuclear cells (PBMC) were isolated from buffy coats of healthy donors (kindly provided by the Blood Center of the Hospital of Battipaglia, Salerno, Italy) by using standard Ficoll−Hypaque gradients. Freshly isolated PBMC contained 92.8±3.1% live cells. Proliferation of PBMC was induced by phytohemagglutinin (PHA) (10 µg mL^−1). […]
Cell DNA content was measured by propidium iodide (PI) incorporation into permeabilized cells, as described by Nicoletti et al.. […] The percentage of cells in the sub G0/G1 phase, apoptotic fraction, was quantified using CellQuest software (Becton Dickinson). The distribution of cells in G0/G1, S, G2/M phases was determined using ModFit LT cell cycle analysis software (Becton Dickinson). Results were expressed as a mean ± SD of three experiments performed in triplicate.

The target of data set [7] is T2, Hsp90α chaperone activity (Homo sapiens, UniProt P07900).
T2 construct: purchased Assay Designs (Ann Arbor, MI, USA)
The data set can be described thus: Citrate synthase thermal-induced aggregation assay (chaperone activity). Type of data set: biochemical. The conditions noted are these: 0.075 µM CS, 0.075 µM Hsp90α, 0.3 µM ATP, four-fold molar excess (0.3 µM) compound, 43°C. As for the experimental part:
Chaperone activity was evaluated by monitoring the thermal−induced aggregation of citrate synthase (CS) (0.075 µM), as reported elsewhere, in the absence or presence of a stoichiometric amount of Hsp90α and 0.3 µM ATP, and with or without a four−fold molar excess of each testing compound. Aggregation was initiated by unfolding CS incubating the protein in 40 mM HEPES–KOH, pH 7.5 at 43°C. Aggregation was monitored by measuring light scattering at right angles with the Perkin Elmer LS 55 fluorimeter in stirred and thermostatted quartz cells. Both the emission and excitation wavelengths were set at 500 nm, while the band–pass was 2 nm. Kinetics traces reported are the averages of two separate measurements.
Figure 3 Inhibition of Hsp90α activity. ATPase activity of the chaperone was evaluated in the presence of different concentrations of geraniin, 17-AAG and HA (A). Data are reported as the residual ATPase activity (%) compared to that observed for an untreated sample. Data are the mean of three independent experiments performed in triplicate and were analyzed by t test (HA vs testing compounds): The error bar represents the standard deviation of nine measurements, while * indicates significance at P<0.01. Aggregation kinetics of citrate synthase (CS) at 43°C determined by light scattering (B). […]

[8] abbreviates: SPR, immobilized Hsp90α, 25°C, single-site bimolecular model, 0.025-1 µM, read-out: KD.

By Kd is commonly meant the equilibrium constant for the complex coming apart. Usually IC50 stands for the point on the concentration scale where inhibition reaches its midpoint.

Turning to `O=c1c(O)c(-c2ccc(O)cc2)oc2cc(O)cc(O)c12` [Compound 2], on recombinant Hsp90α (setting [8]), the Kd was 4.83 ± 0.515 µM.
Take `O=c1c(O)c(-c2ccc(O)c(O)c2)oc2cc(O)ccc12` [Compound 4]: the Kd at recombinant Hsp90α (setting [8]) turned out to be 5.33 ± 0.862 µM.
Turning to `COc1cc(-c2oc3cc(O)cc(O)c3c(=O)c2O)ccc1O` [Compound 5], the Kd at recombinant Hsp90α was 0.748 ± 0.045 µM.
For the molecule `CC(=O)Oc1cc(OC(C)=O)c2c(=O)c(OC(C)=O)c(-c3ccc(OC(C)=O)c(OC(C)=O)c3)oc2c1` [Compound 6], the Kd at recombinant Hsp90α (setting [8]) was 2.21 ± 0.351 µM.
As to `C=CCNC1=C2C[C@@H](C)C[C@H](OC)[C@H](O)[C@@H](C)/C=C(\C)[C@H](OC(N)=O)[C@@H](OC)/C=C\C=C(/C)C(=O)NC(=CC1=O)C2=O` [Compound 17-AAG, 17-(allylamino)-17-demethoxygeldanamycin, reference compound], the cell cycle arrest result in the data set with HeLa cells [1] is “G1 and G2/M arrest”; in the data set on Jurkat cells [5] it was “G1 and G2/M arrest”. The “percentage of cells with hypodiploid nuclei” value came out at 11.6±0.5% in the data set on HeLa cells [1] and 6.05±0.4% in the data set on Jurkat cells [5]. Besides, in data set [2], the “cytotoxic effects in control PBMC” value is recorded as “Minimal cytotoxic effects”. The figures for the IC50 with HeLa cells [3] and in the data set with Jurkat cells [4] were 0.2 ± 0.3 µM and 9.6 ± 0.15 µM, respectively. The molecule also yielded a levels of hypodiploidy/necrosis in data set [6] of 1.8±0.6%.
Regarding `O=c1cc(-c2ccc(O)cc2)oc2cc(O)cc(O)c12` [Compound 19], the Kd on recombinant Hsp90α (setting [8]) came to 8.75 ± 0.735 µM.
On the same count and under the same terms, to `O=C1c2c(O)cc(O)cc2OC(c2ccc(O)c(O)c2)C1O` (stereo not shown) [Compound 34] belongs 1.82 ± 0.242 µM.
For `C[C@@H]1CC[C@@]2(C)C(C(=O)O)=CCC[C@@H]2[C@@]1(C)CCc1ccoc1` [HA, hardwickiic acid, reference compound], on recombinant Hsp90α (SPR, immobilized Hsp90α, 25°C, single-site bimolecular model, 0.025-1 µM), the KD result is listed as “No binding”. Besides, in data set [7], the “effect on citrate synthase aggregation kinetics in the presence of Hsp90α” value was “did not perturb the CS+Hsp90α curve”.
